{"source": "patent US7981912B2", "about": "“Indole acetic acids exhibiting CRTH2 receptor antagonism and uses thereof” (Wyeth LLC, priority 2004, dated 2011)"}
{"molecular_target": "T1, human CRTH2 (Homo sapiens, UniProt Q9Y5Y4)", "T1 sequence (Q9Y5Y4 1-395)": "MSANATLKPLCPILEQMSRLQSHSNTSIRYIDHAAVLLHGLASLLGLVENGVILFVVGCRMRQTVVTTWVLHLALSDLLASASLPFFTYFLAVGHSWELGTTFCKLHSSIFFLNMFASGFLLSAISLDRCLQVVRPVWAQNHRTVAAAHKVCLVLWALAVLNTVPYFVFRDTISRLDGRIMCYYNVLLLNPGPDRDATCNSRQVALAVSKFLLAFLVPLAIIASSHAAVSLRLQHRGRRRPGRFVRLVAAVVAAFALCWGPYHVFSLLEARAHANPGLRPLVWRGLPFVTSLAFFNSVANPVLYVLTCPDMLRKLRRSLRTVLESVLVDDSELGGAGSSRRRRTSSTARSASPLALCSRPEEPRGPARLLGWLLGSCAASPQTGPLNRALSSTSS", "test": "CRTH-2 binding assay (scintillation proximity assay, inhibition of 3H-PGD2 binding)", "parameters": "expressed in transfected cells; host or cells: HEK 293EBNA-hCRTH2 (membrane preparation)", "conditions": "inhibition of 3H-PGD2 (3.6 nM) binding to HEK 293EBNA-hCRTH2 membranes; Ki calculated from IC50", "experimental": "A CRTH2 binding assay was developed to measure the ability of compounds to inhibit the binding of PGD2 to human CRTH2 using a scintillation proximity assay.\nMembranes containing hCRTH2 receptors were prepared from HEK 293EBNA-hCRTH2 cells (a HEK 293EBNA cell line stably expressing human CRTH2). The cells were grown to confluency, harvested and washed with PBS. The cells were resuspended in 10 mM Hepes pH 7.4, 1 mM EDTA and protease inhibitors and incubated for 30 min on ice. The cells were homogenized and centrifuged for 10 min at 1000×g. The supernate was centrifuged for 30 min at 100,000×g and the membrane pellet was then resusupended in 10 mM Hepes pH 7.4 and 1 mM EDTA. The protein concentration of the membrane preparation was determined by Bradford assay (Bio-Rad).\nThe ability of compounds to inhibit the interaction of PGD2 to human CRTH2 was determined at seven compound concentrations. Compounds were serially diluted in DMSO then diluted into CRTH2 buffer without glycerol (10 mM Hepes pH 7.4, 1 mM EDTA, 10 mM MnCl2) to six times the final desired concentration. 20 μL of the diluted compounds were transferred into non-surface binding 96 well plates (Corning). Each concentration was done in triplicate. In addition to test compounds, each plate contained 12 control wells. Six of these wells contained 20 μL of CRTH2 buffer without glycerol. These wells were used to measure total binding. Six wells contained 20 μL of CRTH2 buffer without glycerol plus 1.5 mM indomethacin. These wells were used to measure non-specific binding. Next, HEK 293EBNA-hCRTH2 membranes were resuspended in CRTH2 buffer with glycerol (10 mM Hepes pH 7.4, 1 mM EDTA, 10 mM MnCl2, 25% glycerol) so that the final concentration was approximately 20 μg protein/100 μL. Polylysine coated yttrium silicate SPA beads (Amershamn) were added to the membrane mix to a concentration of 0.4 mg/100 μL and finally ^3H-PGD2 was added to the membrane/SPA bead mix to 3.6 nM. 100 μL of the membrane/SPA bead/^3H-PGD2 mix was added to each well of the non-surface binding plates containing the diluted compound plus controls. The plates were incubated for 2 hours at room temperature with shaking and then the plates were counted on a Microbeta scintillation counter (Perkin Elmer) for 1 min per well.\nIC50 values were determined from the experimental results by nonlinear regression using Prism 4.0 software. The IC50 values were then used in conjunction with the […] for hCRTH2 and the ^3H-PGD2 concentration used in the experiment to calculate the Ki for each compound.", "units": {"Ki": "nM"}}
{"smiles": "Cc1c(C2c3ccccc3S(=O)(=O)N2CCOc2ccc(Cl)cc2)c2ccccc2n1CC(=O)O", "note": "(stereo not shown) [Example 39, (3-{2-[2-(4-Chloro-phenoxy)-ethyl]-1,1-dioxo-2,3-dihydro-1H-1λ^6-benzo[d]isothiazol-3-yl}-2-methyl-indol-1-yl)-acetic acid]", "Ki": "< 100"}
{"smiles": "Cc1c(C2=NN(CCc3ccccc3)C(=O)[C@@H]3CC=CC[C@H]23)c2ccccc2n1CC(=O)O", "note": "(stereo in doubt) [Example 72, [2-Methyl-3-(4-oxo-3-phenethyl-3,4,4a,5,8,8a-hexahydro-phthalazin-1-yl)-indol-1-yl]-acetic acid]", "Ki": "< 100"}
{"smiles": "Cc1c(C2NS(=O)(=O)c3ccccc32)c2cc(F)ccc2n1CC(=O)O", "note": "(stereo not shown) [Example 10, [3-(1,1-Dioxo-2,3-dihydro-1H-1λ^6-benzo[d]isothiazol-3-yl)-5-fluoro-2-methyl-indol-1-yl]-acetic acid]", "Ki": "< 1000"}
{"smiles": "Cc1c(C2=NN(Cc3cccc(Cl)c3)S(=O)(=O)c3ccccc32)c2cc(F)ccc2n1CC(=O)O", "note": "[Example 77, {3-[2-(3-Chloro-benzyl)-1,1-dioxo-1,2-dihydro-1λ^6-benzo[e][1,2,3]thiadiazrn-4-yl]-5-fluoro-2-methyl-indol-1-yl}-acetic acid]", "Ki": "< 1000"}
{"smiles": "Cc1c(C2=NN(Cc3ccccc3F)S(=O)(=O)c3ccccc32)c2cc(F)ccc2n1CC(=O)O", "note": "[Example 81, {3-[2-(2-Fluoro-benzyl)-1,1-dioxo-1,2-dihydro-1λ^6-benzo[e][1,2,3]thiadiazin-4-yl]-5-fluoro-2-methyl-indol-1-yl}-acetic acid]", "Ki": "< 100"}
{"smiles": "CN1C(c2cn(CC(=O)O)c3ccccc23)c2ccccc2S1(=O)=O", "note": "(stereo not shown) [Example 14, [3-(2-Methyl-1,1-dioxo-2,3-dihydro-1H-1λ^6-benzo[d]isothiazol-3-yl)-indol-1-yl]-acetic acid]", "Ki": "< 10000"}
{"smiles": "Cc1ccc2c(c1)c(C1c3ccccc3S(=O)(=O)N1CCCOCc1ccccc1)cn2CC(=O)O", "note": "(stereo not shown) [Example 50, {3-[2-(3-Benzyloxy-propyl)-1,1-dioxo-2,3-dihydro-1H-1λ^6-benzo[d]isothiazol-3-yl]-5-methyl-indol-1-yl}-acetic acid]", "Ki": "< 10000"}
{"smiles": "N#Cc1ccc2c(c1)c(C1NS(=O)(=O)c3ccccc31)cn2CC(=O)O", "note": "(stereo not shown) [Example 9, [5-Cyano-3-(1,1-dioxo-2,3-dihydro-1H-1λ^6-benzo[d]isothiazol-3-yl)-indol-1-yl]-acetic acid]", "Ki": "< 10000"}
{"smiles": "Cc1c(C2=NN(C(C)C)S(=O)(=O)c3ccccc32)c2cc(F)ccc2n1CC(=O)O", "note": "[Example 93, [3-(2-Isopropyl-1,1-dioxo-1,2-dihydro-1λ^6-benzo[e][1,2,3]thiadiazin-4-yl)-5-fluoro-2-methyl-indol-1-yl]-acetic acid]", "Ki": "< 100"}
{"smiles": "Cc1c(C2=NN(CCOc3ccc(Cl)cc3)S(=O)(=O)c3ccccc32)c2cc(F)ccc2n1CC(=O)O", "note": "[Example 89, (3-{2-[2-(4-Chloro-phenoxy)-ethyl]-1,1-dioxo-1,2-dihydro-1λ^6-benzo[e][1,2,3]thiadiazin-4-yl}-5-fluoro-2-methyl-indol-1-yl)-acetic acid]", "Ki": "< 1000"}
{"smiles": "CCOC(=O)CN1C(c2c(C)n(CC(=O)O)c3ccc(Cl)cc23)c2ccccc2S1(=O)=O", "note": "(stereo not shown) [Example 59, [5-Chloro-3-(2-ethoxycarbonylmethyl-1,1-dioxo-2,3-dihydro-1H-1 λ^6-benzo[d]isothiazol-3-yl)-2-methyl-indol-1-yl]-acetic acid]", "Ki": "< 100"}
{"smiles": "O=C(O)Cn1cc(C2c3ccccc3S(=O)(=O)N2Cc2ccccc2-c2ccccc2)c2ccccc21", "note": "(stereo not shown) [Example 32, [3-(2-Biphenyl-2-ylmethyl-1,1-dioxo-2,3-dihydro-1H-1λ^6-benzo[d]isothiazol-3-yl)-indol-1-yl]-acetic acid]", "Ki": "< 1000"}
{"smiles": "Cc1c(C2c3ccc(F)cc3S(=O)(=O)N2Cc2cccc(F)c2)c2ccccc2n1CC(=O)O", "note": "(stereo not shown) [Example 63, {3-[6-Fluoro-2-(3-fluoro-benzyl)-1,1-dioxo-2,3-dihydro-1H-1λ^6benzo[d]isothiazol-3-yl]-2-methyl-indol-1-yl}-acetic acid]", "Ki": "< 1000"}
{"smiles": "O=C(O)Cn1cc(C2c3ccccc3S(=O)(=O)N2Cc2cccc(Oc3ccc(F)cc3)c2)c2ccccc21", "note": "(stereo not shown) [Example 31, (3-{2-[3-(4-Fluoro-phenoxy)-benzyl]-1,1-dioxo-2,3-dihydro-1H-1λ^6benzo[d]isothiazol-3-yl}-indol-1-yl)-acetic acid]", "Ki": "< 1000"}
{"smiles": "Cc1noc(C)c1CN1C(C)(c2c(C)n(CC(=O)O)c3ccccc23)c2ccccc2S1(=O)=O", "note": "(stereo not shown) [Example 65, {3-[2-(3,5-Dimethyl-isoxazol-4-ylmethyl)-3-methyl-1,1-dioxo-2,3-dihydro-1H-1λ^6-benzo[d]isothiazol-3-yl]-2-methyl-indol-1-yl}-acetic acid]", "Ki": "< 100"}
{"smiles": "Cc1c(C2(C)c3ccccc3S(=O)(=O)N2Cc2cccc(F)c2)c2ccccc2n1CC(=O)O", "note": "(stereo not shown) [Example 66, {3-[2-(3-Fluoro-benzyl)-3-methyl-1,1-dioxo-2,3-dihydro-1H-1λ^6-benzo[d]isothiazol-3-yl]-2-methyl-indol-1-yl}-acetic acid]", "Ki": "< 1000"}
{"smiles": "Cc1c(C2NS(=O)(=O)c3ccccc32)c2cc(Cl)ccc2n1CC(=O)O", "note": "(stereo not shown) [Example 6, [5-Chloro-3-(1,1-dioxo-2,3-dihydro-1H-1λ^6-benzo[d]isothiazol-3-yl)-2-methyl-indol-1-yl]-acetic acid]", "Ki": "< 1000"}
{"smiles": "Cc1c(C2NS(=O)(=O)c3cc(F)ccc32)c2ccccc2n1CC(=O)O", "note": "(stereo not shown) [Example 13, [3-(6-Fluoro-1,1-dioxo-2,3-dihydro-1H-1λ^6-benzo[d]isothiazol-3-yl)-2-methyl-indol-1-yl]-acetic acid]", "Ki": "< 1000"}
{"smiles": "Cc1noc(C)c1CN1C(=O)c2ccccc2C1c1c(C)n(CC(=O)O)c2ccccc12", "note": "(stereo not shown) [Example 68, {3-[2-(3,5-Dimethyl-isoxazol-4-ylmethyl)-3-oxo-2,3-dihydro-1H-isoindol-1-yl]-2-methyl-indol-1-yl}-acetic acid]", "Ki": "< 1000"}
{"smiles": "Cc1c(C2c3ccccc3S(=O)(=O)N2c2ccccc2)c2ccccc2n1CC(=O)O", "note": "(stereo not shown) [Example 74, [3-(1,1-Dioxo-2-phenyl-2,3-dihydro-1H-1λ^6-benzo[d]isothiazol-3-yl)-2-methyl-indol-1-yl]-acetic acid]", "Ki": "< 1000"}
{"smiles": "Cc1c(C2=NN(C3CCCCC3)S(=O)(=O)c3ccccc32)c2cc(F)ccc2n1CC(=O)O", "note": "[Example 94, [3-(2-Cyclohexyl-1,1-dioxo-1,2-dihydro-1λ^6-benzo[e][1,2,3]thiadiazin-4-yl)-5-fluoro-2-methyl-indol-1-yl]-acetic acid]", "Ki": "< 100"}
{"smiles": "O=C(O)Cn1cc(C2c3ccccc3S(=O)(=O)N2Cc2ccccc2)c2ccccc21", "note": "(stereo not shown) [Example 28, [3-(2-Benzyl-1,1-dioxo-2,3-dihydro-1H-1λ^6-benzo[d]isothiazol-3-yl)-indol-1-yl]-acetic acid]", "Ki": "< 10000"}
{"smiles": "Cc1c(C2=NN(Cc3ccccc3Cl)S(=O)(=O)c3ccccc32)c2cc(F)ccc2n1CC(=O)O", "note": "[Example 76, {3-[2-(2-Chloro-benzyl)-1,1-dioxo-1,2-dihydro-1λ^6-benzo[e][1,2,3]thiadiazin-4-yl]-5-fluoro-2-methyl-indol-1-yl}-acetic acid]", "Ki": "< 100"}
{"smiles": "COc1cccc(CN2N=C(c3c(C)n(CC(=O)O)c4ccc(F)cc34)c3ccccc3S2(=O)=O)c1", "note": "[Example 79, {3-[2-(3-Methoxy-benzyl)-1,1-dioxo-1,2-dihydro-1λ^6-benzo[e][1,2,3]thiadiazin-4-yl]-5-fluoro-2-methyl-indol-1-yl}-acetic acid]", "Ki": "< 1000"}
{"smiles": "Cc1c(C2=NN(Cc3cccc(C(F)(F)F)c3)S(=O)(=O)c3ccccc32)c2cc(F)ccc2n1CC(=O)O", "note": "[Example 85, {3-[2-(3-Trifluoromethyl-benzyl)-1,1-dioxo-1,2-dihydro-1λ^6-benzo[e][1,2,3]thiadiazin-4-yl]-5-fluoro-2-methyl-indol-1-yl}-acetic acid]", "Ki": "< 1000"}
